# Values joined by “and” are separate entries in the source; they are usually repeats but may differ in a detail not shown here. Equal values may be shown once.
# How the values were obtained:
# NUAK1 [1] = target: T1, NUAK1 (Homo sapiens, UniProt O60285); assay: ADP-Glo biochemical assay NUAK1; design: purchased MRC PPU; conditions: ADP-Glo assay; for IC50: read-out: NUAK1 pIC50 (converted)
# T1 sequence (O60285 1-661): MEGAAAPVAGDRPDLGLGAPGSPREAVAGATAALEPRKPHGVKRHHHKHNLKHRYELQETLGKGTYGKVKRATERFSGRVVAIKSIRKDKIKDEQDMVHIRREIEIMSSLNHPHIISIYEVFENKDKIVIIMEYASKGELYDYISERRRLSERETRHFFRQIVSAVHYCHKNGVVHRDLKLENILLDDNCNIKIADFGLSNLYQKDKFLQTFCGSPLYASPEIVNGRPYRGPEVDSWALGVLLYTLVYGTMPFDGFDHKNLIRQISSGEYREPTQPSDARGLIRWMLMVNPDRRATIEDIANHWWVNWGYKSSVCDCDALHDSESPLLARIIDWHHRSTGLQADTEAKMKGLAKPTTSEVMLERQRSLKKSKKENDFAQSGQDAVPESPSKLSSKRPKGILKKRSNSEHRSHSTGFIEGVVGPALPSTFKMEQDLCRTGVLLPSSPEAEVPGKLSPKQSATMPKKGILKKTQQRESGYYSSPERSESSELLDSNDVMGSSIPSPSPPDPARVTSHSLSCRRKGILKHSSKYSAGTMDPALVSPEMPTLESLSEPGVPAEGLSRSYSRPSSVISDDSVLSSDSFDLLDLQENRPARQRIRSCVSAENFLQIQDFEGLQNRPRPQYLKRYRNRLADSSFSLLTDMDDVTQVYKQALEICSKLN
# Protocol: (§1) Biological experimental procedures
# (§2) ADP-Glo biochemical assays
# (§3) Protein kinase activity in the presence of inhibitor compounds was determined by ADP-Glo assay (Promega), as previously described.1,2 Compounds were serialised using a Labcyte Echo 520 and transferred to 384 well plates (Greiner 784201) followed by the addition 5 µL of substrate containing peptide and ATP at Km in buffer (see Table S6). 5 µL of purified protein was added and the plate was incubated for 60 minutes at room temperature (ng/well; see Table S6). 3 µL of assay mixture was transferred using an Integra Viaflo384 into a white low volume plate (Greiner 781904) prior to the addition of 3 µL of ADP-Glo Reagent™ for a further 40 minute incubation. After incubation with 6 µL of Kinase Detection Reagent for 30 minutes, plate luminescence was read (Pherastar FSX, BMG […]
# (§4) 30 mM HEPES pH7.4, 3 mM MgCl2, 3 mM MnCl2, 1.2 mM DTT, 0.01% CHAPS
# (§5) Table S6: Conditions for protein kinase ADP-Glo assays
# (§6) ATP AT Peptide Peptide Enzyme Enzyme Assay Buffe Min.
# (§7) Protein conc. P Peptide name conc. supplier amount supplier vol. r na […]
# (§8) NUAK1 µM µM Sakamototide 50 µM Merck 6.7 ng PPU 10 µl A 6
# (§9) A µM µM Sakamototide 100 µM Merck 1 ng PPU 10 µl B 2 […]
# (§10) aMin. n: Minimum number of technical replicates per compound
# MARK3 = target: T2, MARK3 (Homo sapiens, UniProt P27448); assay: ADP-Glo biochemical assay MARK3; conditions: for MARK3 pIC50 / IC50: ADP-Glo assay; for IC50: read-out: MARK3 pIC50 (converted)
# T2 construct: purchased MRC PPU
# T2 sequence (P27448 whole entry): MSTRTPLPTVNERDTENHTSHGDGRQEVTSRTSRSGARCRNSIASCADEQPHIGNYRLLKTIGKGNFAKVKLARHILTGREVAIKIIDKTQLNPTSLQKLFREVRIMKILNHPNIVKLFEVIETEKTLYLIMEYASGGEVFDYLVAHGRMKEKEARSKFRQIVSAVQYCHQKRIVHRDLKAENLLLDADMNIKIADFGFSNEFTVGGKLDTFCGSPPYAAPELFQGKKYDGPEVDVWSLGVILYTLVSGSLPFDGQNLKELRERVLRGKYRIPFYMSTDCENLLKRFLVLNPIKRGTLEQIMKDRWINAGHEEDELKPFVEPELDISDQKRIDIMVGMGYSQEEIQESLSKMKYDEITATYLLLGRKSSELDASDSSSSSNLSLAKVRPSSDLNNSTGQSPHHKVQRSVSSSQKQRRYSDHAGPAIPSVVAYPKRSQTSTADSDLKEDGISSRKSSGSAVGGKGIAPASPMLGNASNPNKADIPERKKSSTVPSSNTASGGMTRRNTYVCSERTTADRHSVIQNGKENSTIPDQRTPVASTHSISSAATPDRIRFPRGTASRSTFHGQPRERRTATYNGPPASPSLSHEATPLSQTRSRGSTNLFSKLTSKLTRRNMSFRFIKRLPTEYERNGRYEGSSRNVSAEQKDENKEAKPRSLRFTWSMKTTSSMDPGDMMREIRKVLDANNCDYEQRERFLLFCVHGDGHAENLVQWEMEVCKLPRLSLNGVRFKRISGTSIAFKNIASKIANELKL
# Protocol: as §1, §2, §3, §4, §5, §6, §7, §8, §9, §10
# NUAK1 [2] = target: T1, NUAK1; assay: NanoBRET target engagement assay, HEK293 cells; conditions: cell-based NanoBRET target engagement assay
# Protocol: NanoBRET® target engagement assay
# The binding of compounds to NUAK1 in intact cells was assessed using an NanoBRET® TE Intracellular Kinase Assay (Promega N2501). HEK293 cells transiently transfected with NanoLuc®- NUAK1 Fusion Vector (Promega NV1831) were incubated with 10 nL K5 tracer (provided in the kit, Promega N2501) and 40 nL of the test compounds in 100% DMSO in a white low volume non-binding 384 assay plate (Grenier Bio One 784904) for 90 min at 37 °C. After incubation, followed by cooling for 15 min at room temperature, 4 µL of the Intracellular TE Nano-Glo ® Substrate/Inhibitor (Promega N2160) was added to each well. The plate was read using a Pherastar FSX plate reader (BMG Labtech).
# Minimum number of 2 technical replicates per compound.
# Activity pIC50 values and standard error of the mean (SEM) were estimated using a 4-parameter fit (Dotmatics). The SEM for all reported data was 0.2 or lower. See Experimental Procedures for minimum number of replicates per compound. Each experiment included a Standard compound whose pIC50 value was compared to a quality control chart. If the Standard pIC50 value fell outside the range of pIC50 +/-3 standard deviation, then the experiment was invalidated. […]
# [3] = Microsomal stability, mouse; type: in vitro ADME; conditions: mouse liver microsomes; read-out: MLM t1/2
# Protocol: All single point assay determinations carried out in duplicate.
# ADMET and PK experimental methods
# Microsomal stability: analysis was performed by Cyprotex Discovery. […]
# AMPKA α1β2γ1 [4] = target: T3, AMPKA α1β2γ1 (Homo sapiens, UniProt O43741+P54619+Q13131); assay: ADP-Glo biochemical assay AMPKA; conditions: ADP-Glo assay; read-out: AMPKA pIC50 (converted)
# T3 construct: purchased MRC PPU
# T3 sequence (Q13131 11-559 limits assumed): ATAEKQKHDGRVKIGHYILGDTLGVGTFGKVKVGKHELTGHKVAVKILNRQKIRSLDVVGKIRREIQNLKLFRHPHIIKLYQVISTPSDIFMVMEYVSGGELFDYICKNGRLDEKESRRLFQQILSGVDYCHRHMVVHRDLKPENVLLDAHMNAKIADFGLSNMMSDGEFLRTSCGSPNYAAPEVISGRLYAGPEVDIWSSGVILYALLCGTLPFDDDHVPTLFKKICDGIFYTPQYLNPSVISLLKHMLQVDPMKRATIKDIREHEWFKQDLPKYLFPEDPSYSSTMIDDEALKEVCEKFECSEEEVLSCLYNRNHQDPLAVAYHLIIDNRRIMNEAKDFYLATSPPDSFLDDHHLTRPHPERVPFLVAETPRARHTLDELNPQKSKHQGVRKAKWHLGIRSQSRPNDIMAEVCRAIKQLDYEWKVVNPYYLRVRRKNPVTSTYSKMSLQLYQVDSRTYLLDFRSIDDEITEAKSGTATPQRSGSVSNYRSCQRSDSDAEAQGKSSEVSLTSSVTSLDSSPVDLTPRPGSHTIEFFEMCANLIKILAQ
# T3 sequence (O43741 whole entry partner): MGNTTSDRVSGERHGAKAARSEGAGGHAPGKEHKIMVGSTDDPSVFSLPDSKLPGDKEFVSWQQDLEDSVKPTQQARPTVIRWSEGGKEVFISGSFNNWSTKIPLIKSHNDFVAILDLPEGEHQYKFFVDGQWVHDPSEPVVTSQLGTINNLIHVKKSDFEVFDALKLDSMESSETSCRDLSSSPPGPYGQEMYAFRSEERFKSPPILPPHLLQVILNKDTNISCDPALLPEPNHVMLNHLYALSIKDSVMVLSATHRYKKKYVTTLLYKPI
# T3 sequence (P54619 whole entry partner): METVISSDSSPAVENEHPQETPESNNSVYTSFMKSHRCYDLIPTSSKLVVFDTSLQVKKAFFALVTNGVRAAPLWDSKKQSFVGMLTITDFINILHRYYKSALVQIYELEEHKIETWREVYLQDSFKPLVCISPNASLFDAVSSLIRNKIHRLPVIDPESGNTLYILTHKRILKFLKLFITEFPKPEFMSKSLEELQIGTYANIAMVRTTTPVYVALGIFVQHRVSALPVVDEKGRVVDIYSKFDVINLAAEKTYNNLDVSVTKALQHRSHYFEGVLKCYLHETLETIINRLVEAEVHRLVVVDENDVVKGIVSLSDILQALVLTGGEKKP
# Protocol: as §1, §2, §3, §4, §5, §6, §7, §8, §9, §10
# AMPKA α1β2γ1 [5] = target: T4, AMPKA α1β2γ1 (Homo sapiens, UniProt Q13131); assay: ADP-Glo biochemical assay AMPKA; conditions: AMPKA IC50/NUAK1 IC50
# T4 construct: purchased MRC PPU
# T4 sequence (Q13131 11-559 limits assumed): as the sequence (Q13131 11-559 limits assumed) above
# T4 sequence (O43741 whole entry partner): as the sequence (O43741 whole entry partner) above
# T4 sequence (P54619 whole entry partner): as the sequence (P54619 whole entry partner) above
# Protocol: as §1, §2, §3, §4, §5, §6, §7, §8, §9, §10
NUAK1 pIC50 (NUAK1 [1]),MARK3 pIC50 (MARK3),MARK3 Fold selectivity IC50/NUAK1 IC50 (MARK3),NUAK1 cell TE pIC50 (NUAK1 [2]),IC50 (NUAK1 [2]; read-out: NUAK1 cell TE pIC50 (converted)),IC50 (NUAK1 [1]),Compound,half-life at 1 µM [3],IC50 (MARK3),IC50 (AMPKA α1β2γ1 [4]),AMPKA Fold selectivity IC50/NUAK1 IC50 (AMPKA α1β2γ1 [5])
7.4,< 4.6,> 676 fold,<4.6,–,–,COc1cc(Nc2ncc3cc(C#N)c(=O)n(C4CCCC4)c3n2)cc(OC)c1 [Compound 17],–,–,–,–
–,–,–,< 4.3,–,–,"Cc1nc(Nc2cnn(C3CCNCC3)c2)nc2c1N(C)C(=O)c1cc3ccccc3cc1N2C [Compound 2, HTH-01-015, reference compound]",–,–,–,–
6.5,4.9,40 fold,–,–,–,COc1nn(C)cc1Nc1ncc2c(C)cc(=O)n(C3CCCC3)c2n1 [Compound 18],–,–,–,–
7.4,5.6,57 fold,inactive,> 25.1 µM,–,COc1cc(Nc2ncc3c(n2)N(C2CCCC2)C(=O)C(C)(C)O3)cc(OC)c1OC [Compound 19],1.4 min,–,–,–
–,–,> 11 fold,–,–,0.316 µM,Cc1cc(=O)n(C2CCCC2)c2nc(Nc3ccc(N4CCNCC4)cn3)ncc12 [Compound 13],–,> 3.16 µM,–,–
8.21 and 8.2,5.8,288 fold,6.6,–,–,COc1cc(Nc2ncc3c(C)cc(=O)n(C4CCCC4)c3n2)cc(OC)c1OC [Compound 15],–,–,> 75.9 µM,> 12000 fold
6.8,5.9,8 fold,<4.6,–,–,CN1CCN(c2ccc(Nc3ncc4c(n3)N(C3CCCC3)C(=O)C(C)(C)O4)cc2)CC1 [Compound 6],–,–,–,–
–,–,–,–,–,20 µM,"CC(=O)c1c(C)c2cnc(Nc3ccc(N4CCNCC4)cn3)nc2n(C2CCCC2)c1=O [Compound 14, Palbociclib, reference compound]",–,–,–,–
6.6,< 4.6,> 89 fold,–,–,–,COc1cc(N2CCN(C)CC2)ccc1Nc1ncc2c(C)cc(=O)n(C3CCCC3)c2n1 [Compound 12],–,–,–,–

Compound,NUAK1 pIC50 (NUAK1 [1]),MARK3 pIC50 (MARK3),MARK3 Fold selectivity IC50/NUAK1 IC50 (MARK3),NUAK1 cell TE pIC50 (NUAK1 [2]),IC50 (NUAK1 [2]; read-out: NUAK1 cell TE pIC50 (converted)),IC50 (NUAK1 [1]),half-life at 1 µM [3],IC50 (MARK3),IC50 (AMPKA α1β2γ1 [4]),AMPKA Fold selectivity IC50/NUAK1 IC50 (AMPKA α1β2γ1 [5])
COCCn1c(=O)cc(C)c2cnc(Nc3ccc(N4CC5CC(C4)N5C)cc3)nc21 [Compound 21],6.7,5.2,35 fold,–,–,–,–,–,–,–
CN1C2CC1CN(c1ccc(Nc3ncc4ccn(C5COC5)c4n3)cc1)C2 [Compound 31],7.8,5.4,263 fold,–,–,–,–,–,–,–
CN1C2CC1CN(c1ccc(Nc3ncc4ccn(CC5CCOC5)c4n3)cc1)C2 (centres unmarked) [Compound 29],8.1,5.3,641 fold,6.4,–,–,12.8 min,–,5.62 µM,708 fold
Cc1cc(=O)n(CC(O)CO)c2nc(Nc3ccc(N4CC5CC(C4)N5C)cc3)ncc12 (centres unmarked) [Compound 22],7.0,5.7,20 fold,–,–,–,–,–,–,–
CN1C2CC1CN(c1ccc(Nc3ncc4ccn(C5CCOC5)c4n3)cc1)C2 (centres unmarked) [Compound 30],–,–,388 fold,–,–,0.0158 µM,–,6.31 µM,–,–

# Reference: PMC11831560, “Development of the Pyrido[2,3-d]pyrimidin-7(8H)-one Scaffold toward Potent and Selective NUAK1 Inhibitors” (ACS Medicinal Chemistry Letters, 2025)
